For one experiment, the system named is SUP-T1 cells. Put plainly: Flow cytometry of SUP-T1 cells sensitized with CD8-PR34+ conjugate, biotinylated 9C5 and streptavidin-PE, with or without free peptide. The experiment is classed as cell-based, human. The following applies: SUP-T1 cells stained with conjugate, biotinylated 9C5, streptavidin-PE; free peptide 5.0 mg/ml, 15 min; FIG. 2. The method, then:
For flow cytometry experiments, SUP-T1 cells were used. SUP-T1 is a T-lymphoma-derived tumor cell line known to express typical T cell surface markers. The SUP-T1 cells were prepared for flow cytometry and sequentially sensitized with the CD8 antibody-PR34+ peptide (CD8-PR34+) conjugate, biotinylated 9C5, and phycoerythrin-labeled (PE-labeled) streptavidin. The SUP-T1 cells were incubated with either streptavidin-PE; sequentially with the CD8-PR34+ conjugate, biotinylated 9C5, followed by streptavidin-PE; or sequentially with CD8-PR34+ conjugate, biotinylated 9C5, streptavidin-PE, followed by a 15 min incubation with free PR34+™ peptide. The SUP-T1 cells were then analyzed by flow cytometry. All incubations were performed in a mixture of Dulbecco's phosphate buffered saline (GibcoBRL), 0.05% azide, 1.0% human serum albumin (PAH). All incubations were for 15 min at room temperature and each was followed by a wash with 1.0 ml PAH. The stained cells were resuspended in 0.25 ml PAH for flow cytometry. SUP-T1 cells (1×10^6) were stained with 1 μg of either the CD8-9069N or the CD34-biotin. The peptide was used at 5.0 mg/ml.

The subject of a further experiment is CD8+ cells. Put plainly: Positive selection of CD8+ cells from a mononuclear cell preparation. To be noted: condition 2: biotinylated CD8 antibody capture; incubation with free PR34+ peptide. Type of experiment: cell-based, human. The method, then:
To test the ability of the CD8-PR34+ conjugate to isolate CD8+ cells from a population, mononuclear cells (MNCs), which contain CD8+ cells, were prepared. Mononuclear cells were collected from human donors. Mononuclear cells were collected from a G-CSF mobilized human donor using a CS-3000™ (Baxter) following the protocol of the manufacturer. The starting population of MNCs was 19.42% CD3+/8+. For each rosetting reaction, a quantity of MNCs containing 2×10^6 CD8+ cells was used. Biotinylated CD8 antibody (MT-415) was biotinylated essentially as described in Example I. The MNCs were incubated under three conditions. In condition 1, MNCs were incubated with streptavidin beads alone. In condition 2, MNCs were incubated with biotinylated CD8 antibody, followed by streptavidin beads. In condition 3, MNCs were incubated with CD8-PR34+ conjugate, followed by biotinylated 9C5 and streptavidin beads. After incubation with streptavidin beads, the free cells were removed, and the cells attached to streptavidin beads were incubated with free PR34+™ peptide. The released cells were counted, and the number of CD8+ cells was evaluated using flow cytometry. The CD8+ cells were quantitated using a combination of CD3 and […]. CD3 is a pan T cell marker, and CD3+ populations can be further subdivided into mutually exclusive CD4+ and CD8 positive populations. […]

In a further experiment the test system is CD2+ T cells. As to the kind of experiment: Positive selection of CD2+ T cells using CD2-9069N, b-9069 and streptavidin beads. Type of experiment: cell-based, human. To be noted: release reagent 9069N 2.5 mg; for % T-cells released: 30 min./RT. The source says:
To test the ability of a PR34+ peptide-conjugate to isolate a different cell type, the PR34+TM peptide was coupled to a CD2 antibody (B-E2; IgG2b isotype; Diaclone; Besancon, France) essentially as described in Example T. The PR34+TM peptide, also designated […], conjugated to the CD2 antibody was designated CD2-[…]. The biotinylated 9C5 antibody, also known as the 9069 antibody, was designated b-9069. Either mobilized or non-mobilized MNC preparations (see Example III) were used, with similar results. Cells were incubated with 1 μg or 5 μg of CD2-[…] conjugate for 15 min at room temperature (see Table 3). The cells were then incubated with 1 μg or 10 μg of biotinylated 9C5 antibody (b-9069) and streptavidin beads. Bound cells were subsequently incubated with either buffer or 2.5 mg of free PR34+TM peptide ([…]). Incubation conditions were essentially as described in Example II. The released cells were then quantitated and the purity determined. Purity and cell counts were assessed using an anti-CD3 antibody and the True Count flow cytometty quantitation method (Becton Dickenson; San Jose Calif.).

The test system of another experiment is CD2 T cells. Put plainly: T cell selection using CD2-PR34 conjugate and capture by direct binding of CD34 antibody to Dynabeads. The experiment is classed as cell-based, human. To be noted: for % Purity / % Yield: release agent PR34+ 2.5 mg. The method, then:
The CD2 antibody B-E2 was conjugated to PR34™ peptide essentially as described in Example IV. MNCs were incubated essentially as described in Example IV using CD2-PR34 conjugate. The cells were then incubated with the CD34 antibody 9069 coated on M-450 Dynabeads (Dynal). The CD34 antibody coated beads were prepared by absorbing various amounts of anti-CD34 antibody on the bead surface. The beads were prebound with 0, 1, 5, 20, or 50 μg of antibody per 108 beads. As a control, an aliquot of cells was incubated with streptavidin coated Dynabeads.

In another experiment the test system is Camma cells. As to the kind of experiment: Positive selection of Camma cells using Pan-O-5-PR34 conjugate and anti-CD34-coated Dynabeads. Type of experiment: cell-based. To be noted: PR34 peptide 5 mg/ml, 30 min room temperature; FIG. 5, N=1. How it is done: To prepare antibody-coated beads, Dynabeads (Dynal) were washed with Dulbecco's phosphate buffered saline (D-PBS). Washed beads were coated with 50 μg anti-CD34 monoclonal antibody per 10^8 beads for 24 hours at 4° C. The beads were washed twice with Isolex buffer and incubated with 1% albumin in the Isolex buffer for 24 hours at 4° C.
To synthesize the Pan-O-5-PR34 conjugate, the Pan-O-5 monoclonal antibody was incubated with N-(ε-maleimidocaproyloxy)succinimide ester for 30 min at room temperature to generate an antibody-linker complex. The antibody-linker complex was washed twice with D-PBS using an Amicon spin column (30 KD; Millipore Corp.; Bedford Mass.). The Pan-O-5-antibody-linker complex was incubated with PR34™ peptide for 30 min at room temperature. The Pan-O-5-linker-PR34 antibody complex was washed twice with D-PBS using an Amicon spin column. The concentration of the conjugate was determined by absorbance at 280 nm.
Cells (18×10^6) were incubated with Pan-O-5-linker-PR34 antibody (5 μg/ml) for 15 min. The cell-antibody complex was washed twice with Isolex buffer and incubated with anti-CD34-coated Dynabeads (5 beads per cell) for 30 min at room temperature. The Dynabeads were isolated with a magnet, and unbound cells were removed. The bead-cell fraction was incubated with PR34™ peptide (5 mg/ml) for 30 min at room temperature. […]

[1] abbreviates: SA: streptavidin coated Dynabead control.

“And” between values parts separate entries of the source, which are not always exact repeats. Equal values may be shown once. Ends that are not written are not given here.

Consider “Ac-QQGWFPKD [PR34+™ peptide, peptide capable of displacing the anti-CD34 antibody 9C5 (9069); used free as release agent]”, for which the “fluorescent signal after addition of free peptide” value with SUP-T1 cells is “eliminated the fluorescent signal”. The “% Yield” value with CD8+ cells is “less than 3%”; in the experiment with CD2 T cells (1 μg antibody per 10^8 beads), 55.9%; in the experiment on CD2 T cells (5 μg antibody per 10^8 beads), 68.9%; in the experiment with CD2 T cells (20 μg antibody per 10^8 beads) it was 47.4%; in the experiment on CD2 T cells (50 μg antibody per 10^8 beads) it was 57.5%; in the experiment on CD2 T cells (setting [1]) it was 81.5%. The “% Purity (CD3+)” value is 89% in the experiment on CD2+ T cells (CD2-9069N 1 μg, b-9069 1 μg); 87% and 74% in the experiment on CD2+ T cells (CD2-9069N 1 μg, b-9069 10 μg); 88% and 81% with CD2+ T cells (CD2-9069N 5 μg, b-9069 1 μg); 70% with CD2+ T cells (CD2-9069N 5 μg, b-9069 10 μg). Also, the “% T-cells released” value was 71% in the experiment on CD2+ T cells (CD2-9069N 1 μg, b-9069 1 μg); 87% and 65% in the experiment on CD2+ T cells (CD2-9069N 1 μg, b-9069 10 μg); 61% and 56% in the experiment on CD2+ T cells (CD2-9069N 5 μg, b-9069 1 μg); 50% with CD2+ T cells (CD2-9069N 5 μg, b-9069 10 μg). Besides, the “% Purity” value was determined as 92.4% in the experiment with CD2 T cells (1 μg antibody per 10^8 beads); 91.3% in the experiment with CD2 T cells (5 μg antibody per 10^8 beads); 91.8% with CD2 T cells (20 μg antibody per 10^8 beads); 91.4% in the experiment on CD2 T cells (50 μg antibody per 10^8 beads); 94.5% in the experiment with CD2 T cells (setting [1]). Also, in the experiment with CD2 T cells (summary, antibody-coated beads), the “purity of the cells released by free peptide” value is reported as “greater than 90%”. In addition, the “yield of CD2 cells” value in the experiment on CD2 T cells (summary, antibody-coated beads incubated with free PR34+ peptide) is recorded as ≥ 50%. For the same substance, the cells released entry with Camma cells is reported as “Greater than 75%”.

The record behind these values is patent US20030119070A1, “Reagents for cell selection and methods of use” (Nexell Therapeutics, Inc., priority 2000, published 2003).
